Measured values as given in US8357717B2, “Spiro group-containing amide compounds having bradykinin 1 receptor (B1R) activity” (Gruenenthal GmbH, priority 2009, dated 2013).

How the values were obtained:
[1] = biological target: T1, human B1R receptor (hB1R) (Homo sapiens, UniProt P46663); assay: FLIPR Ca2+ functional study on bradykinin receptor 1, hB1R cells (CHO K1); format: cell-based; settings: CHO-K1, 10 μM test substance; CHO K1 cells with human B1R; agonist Lys-Des-Arg9-bradykinin at EC80; read-out: B1R antagonism, human [10 μM] % inhibition
T1 construct: expressed in transfected cells; host or cells: CHO K1 cells, stably transfected
T1 sequence (P46663 1-353): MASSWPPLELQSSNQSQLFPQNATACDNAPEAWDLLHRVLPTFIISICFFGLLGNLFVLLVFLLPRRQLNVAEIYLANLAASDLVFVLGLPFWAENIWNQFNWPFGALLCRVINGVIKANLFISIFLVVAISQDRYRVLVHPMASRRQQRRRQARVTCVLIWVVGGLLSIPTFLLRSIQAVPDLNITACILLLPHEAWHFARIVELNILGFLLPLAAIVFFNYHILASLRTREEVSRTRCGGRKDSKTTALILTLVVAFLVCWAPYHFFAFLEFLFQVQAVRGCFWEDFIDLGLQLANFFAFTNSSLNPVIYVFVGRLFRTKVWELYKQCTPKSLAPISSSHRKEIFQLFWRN
Summary of the method: (§1)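 Stably transfected CHO K1 cells loaded with Fluo-4; FLIPR Ca2+ fluorescence (ex 488/em 540 nm, peak counts). Compounds (10 μM, or concentration series for IC50) preincubated 10–20 min, then EC80 agonist added (human: Lys-Des-Arg9-bradykinin; rat: Des-Arg9-bradykinin); % inhibition versus maximum achievable, n=2–3, N≥2.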

[2] = biological target: T2, B1R receptor of the rat (rB1R) (Rattus norvegicus, UniProt P97583); assay: FLIPR Ca2+ functional study on bradykinin receptor 1, rB1R cells (CHO K1); format: cell-based; settings: 10 μM test substance; CHO K1 cells with rat B1R; agonist Des-Arg9-bradykinin at EC80; read-out: B1R antagonism, rat [10 μM] % inhibition
T2 construct: expressed in transfected cells; host or cells: CHO K1 cells, stably transfected
T2 sequence (P97583 1-337): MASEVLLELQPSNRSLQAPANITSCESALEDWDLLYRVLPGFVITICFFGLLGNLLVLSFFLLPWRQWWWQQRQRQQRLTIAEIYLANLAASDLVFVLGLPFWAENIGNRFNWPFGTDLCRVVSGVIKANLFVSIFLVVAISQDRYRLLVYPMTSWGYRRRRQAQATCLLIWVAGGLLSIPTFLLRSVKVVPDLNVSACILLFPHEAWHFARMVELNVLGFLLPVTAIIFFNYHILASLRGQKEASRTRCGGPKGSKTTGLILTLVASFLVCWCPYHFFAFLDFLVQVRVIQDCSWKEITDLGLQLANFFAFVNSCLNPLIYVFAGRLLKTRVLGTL
Summary of the method: as §1

## O=C(Nc1ccc(Cl)c(Cl)c1)N1CCc2onc(C(=O)N3CCC4(CC3)CCN(c3ccncc3)CC4)c2C1 [Compound G-46, N-(3,4-Dichlorophenyl)-3-(9-(pyridin-4-yl)-3,9-diazaspiro[5.5]undecane-3-carbonyl)-6,7-dihydroisoxazolo[4,5-c]pyridine-5(4H)-carboxamide]
[1]
  inhibition at 10 µM: 35%
[2]
  inhibition at 10 µM: 57%

## Cc1ccc(S(=O)(=O)N2CCc3ccc(C(=O)N4CCC5(CC4)CCN(c4ccncc4)CC5)cc3C2)c2ccccc12 [Compound G-47, (2-(4-Methylnaphthalin-1-ylsulfonyl)-1,2,3,4-tetrahydroisoquinolin-7-yl)(9-(pyridin-4-yl)-3,9-diazaspiro[5.5]undecan-3-yl)methanone]
[1]
  inhibition at 10 µM: 72%
[2]
  inhibition at 10 µM: 80%

## COc1ccc(S(=O)(=O)N2CCc3ccc(C(=O)N4CCC5(CC4)CCN(c4ccncc4)CC5)cc3C2)c2ccccc12 [Compound G-48, (2-(4-Methoxynaphthalin-1-ylsulfonyl)-1,2,3,4-tetrahydroisoquinolin-7-yl)(9-(pyridin-4-yl)-3,9-diazaspiro[5.5]undecan-3-yl)methanone]
[1]
  inhibition at 10 µM: 73%
[2]
  inhibition at 10 µM: 95%

## O=C(c1ccc2c(c1)CN(C(=O)C(c1ccccc1)c1ccccc1)CC2)N1CCC2(CC1)CCN(c1ccncc1)CC2 [Compound G-49, 2,2-Diphenyl-1-(7-(9-(pyridin-4-yl)-3,9-diazaspiro[5.5]undecane-3-carbonyl)-3,4-dihydroisoquinolin-2(1H)-yl)ethanone]
[1]
  inhibition at 10 µM: 99%
[2]
  inhibition at 10 µM: 106%

## O=C(c1ccc2c(c1)CN(S(=O)(=O)c1ccc(Cl)c3ccccc13)CC2)N1CCC2(CC1)CCN(c1ccncc1)CC2 [Compound G-50, (2-(4-Chloronaphthalin-1-ylsulfonyl)-1,2,3,4-tetrahydroisoquinolin-7-yl)(9-(pyridin-4-yl)-3,9-diazaspiro[5.5]undecan-3-yl)methanone]
[1]
  inhibition at 10 µM: 69%
[2]
  inhibition at 10 µM: 91%

## Cc1cccc(Cl)c1S(=O)(=O)N1CCCc2ccc(CC(=O)N3CCC4(CCN(c5ccncc5)CC4)C3)cc21 [Compound G-51, 2-(1-(2-Chloro-6-methylphenylsulfonyl)-1,2,3,4-tetrahydroquinolin-7-yl)-1-(8-(pyridin-4-yl)-2,8-diazaspiro[4.5]decan-2-yl)ethanone]
[1]
  inhibition at 10 µM: 100%
[2]
  inhibition at 10 µM: 106%

## O=C(Cc1ccc2c(c1)N(S(=O)(=O)c1cccc3ccccc13)CCC2)N1CCC2(CCN(c3ccncc3)CC2)C1 [Compound G-52, 2-(1-(Naphthalin-1-ylsulfonyl)-1,2,3,4-tetrahydroquinolin-7-yl)-1-(8-(pyridin-4-yl)-2,8-diazaspiro[4.5]decan-2-yl)ethanone]
[1]
  inhibition at 10 µM: 98%
[2]
  inhibition at 10 µM: 106%

## O=C(Cc1ccc2c(c1)N(S(=O)(=O)c1cccc3ccccc13)CCC2)N1CCC2(CCN(c3ccncc3)C2)C1 (centres unmarked) [Compound G-53, 2-(1-(Naphthalin-1-ylsulfonyl)-1,2,3,4-tetrahydroquinolin-7-yl)-1-(7-(pyridin-4-yl)-2,7-diazaspiro[4.4]nonan-2-yl)ethanone]
[1]
  inhibition at 10 µM: 95%
[2]
  inhibition at 10 µM: 105%

## O=C(Cc1ccc2c(c1)N(S(=O)(=O)c1cccc3ccccc13)CCC2)N1CCC2(CCC(N3CCC3)CC2)CC1 [Compound G-54, 1-(9-(Azetidin-1-yl)-3-azaspiro[5.5]undecan-3-yl)-2-(1-(naphthalin-1-ylsulfonyl)-1,2,3,4-tetrahydroquinolin-7-yl)ethanone]
[1]
  inhibition at 10 µM: 57%
[2]
  inhibition at 10 µM: 55%

## O=C(Nc1ccc(Cl)c(Cl)c1)N1CCc2ccc(C(=O)N3CCC4(CC3)CCN(c3ccncc3)CC4)cc2C1 [Compound G-55, N-(3,4-dichlorophenyl)-7-(9-(pyridin-4-yl)-3,9-diazaspiro[5.5]undecane-3-carbonyl)-3,4-dihydroisoquinoline-2(1H)-carboxamide]
[1]
  inhibition at 10 µM: 92%
[2]
  inhibition at 10 µM: 94%

## O=C(c1ccc2c(c1)CN(S(=O)(=O)c1ccc(F)c3ccccc13)CC2)N1CCC2(CC1)CCN(c1ccncc1)CC2 [Compound G-56, (2-(4-Fluoronaphthalin-1-ylsulfonyl)-1,2,3,4-tetrahydroisoquinolin-7-yl)(9-(pyridin-4-yl)-3,9-diazaspiro[5.5]undecan-3-yl)methanone]
[1]
  inhibition at 10 µM: 87%
[2]
  inhibition at 10 µM: 90%

## O=C(Cc1ccc2c(c1)N(S(=O)(=O)c1ccccc1C(F)(F)F)CCC2)N1CCC2(CCN(c3ccncc3)CC2)C1 [Compound G-57, 1-(8-(Pyridin-4-yl)-2,8-diazaspiro[4.5]decan-2-yl)-2-(1-(2-(trifluoromethyl)phenylsulfonyl)-1,2,3,4-tetrahydroquinolin-7-yl)ethanone]
[1]
  inhibition at 10 µM: 100%
[2]
  inhibition at 10 µM: 101%

## Cc1ccc(C(=O)N2CCc3ccc(C(=O)N4CCC5(CC4)CCN(c4ccncc4)CC5)cc3C2)s1 [Compound G-58, (5-Methylthiophen-2-yl)(7-(9-(pyridin-4-yl)-3,9-diazaspiro[5.5]undecane-3-carbonyl)-3,4-dihydroisoquinolin-2(1H)-yl)methanone]
[1]
  inhibition at 10 µM: 100%
[2]
  inhibition at 10 µM: 91%

## O=C(c1ccc2c(c1)CN(C(=O)c1cc3ccccc3s1)CC2)N1CCC2(CC1)CCN(c1ccncc1)CC2 [Compound G-59, Benzo[b]thiophen-2-yl(7-(9-(pyridin-4-yl)-3,9-diazaspiro[5.5]undecane-3-carbonyl)-3,4-dihydroisoquinolin-2(1H)-yl)methanone]
[1]
  inhibition at 10 µM: 86%
[2]
  inhibition at 10 µM: 95%

## O=C(c1ccc2c(c1)CN(C(=O)c1cc3c(s1)CCC3)CC2)N1CCC2(CC1)CCN(c1ccncc1)CC2 [Compound G-60, (5,6-Dihydro-4H-cyclopenta[b]thiophen-2-yl)(7-(9-(pyridin-4-yl)-3,9-diazaspiro[5.5]undecane-3-carbonyl)-3,4-dihydroisoquinolin-2(1H)-yl)methanone]
[1]
  inhibition at 10 µM: 98%
[2]
  inhibition at 10 µM: 91%

## COc1ccc2c(Cl)c(C(=O)N3CCc4ccc(C(=O)N5CCC6(CC5)CCN(c5ccncc5)CC6)cc4C3)sc2c1 [Compound G-61, (3-Chloro-6-methoxybenzo[b]thiophen-2-yl)(7-(9-(pyridin-4-yl)-3,9-diazaspiro[5.5]undecane-3-carbonyl)-3,4-dihydroisoquinolin-2(1H)-yl)methanone]
[1]
  inhibition at 10 µM: 77%
[2]
  inhibition at 10 µM: 91%

## O=C(c1ccc2c(c1)CN(S(=O)(=O)c1cccc3c(Cl)cccc13)CC2)N1CCC2(CC1)CCN(c1ccncc1)CC2 [Compound G-62, (2-(5-Chloronaphthalin-1-ylsulfonyl)-1,2,3,4-tetrahydroisoquinolin-7-yl)(9-(pyridin-4-yl)-3,9-diazaspiro[5.5]undecan-3-yl)methanone]
[1]
  inhibition at 10 µM: 44%
[2]
  inhibition at 10 µM: 78%

## CC(C)(C)c1ccc(C(=O)N2CCc3ccc(C(=O)N4CCC5(CC4)CCN(c4ccncc4)CC5)cc3C2)s1 [Compound G-63, (5-tert-Butylthiophen-2-yl)(7-(9-(pyridin-4-yl)-3,9-diazaspiro[5.5]undecane-3-carbonyl)-3,4-dihydroisoquinolin-2(1H)-yl)methanone]
[1]
  inhibition at 10 µM: 83%
[2]
  inhibition at 10 µM: 80%

## O=C(Cc1ccc2c(c1)N(C(=O)c1ccccc1Cl)CCC2)N1CCC2(CC1)CCN(c1ccncc1)CC2 [Compound G-64, 2-[1-(2-Chloro-benzoyl)-1,2,3,4-tetrahydro-quinolin-7-yl]-1-(9-pyridin-4-yl-3,9-diazaspiro[5.5]undecan-3-yl)-ethanone]
[1]
  inhibition at 10 µM: 59%
[2]
  inhibition at 10 µM: 96%

## Cc1ccc(Cl)c(S(=O)(=O)N2CCCc3ccc(CC(=O)N4CCC5(CC4)CCN(c4ccncc4)CC5)cc32)c1Cl [Compound G-66, 2-[1-[(2,6-Dichloro-3-methyl-phenyl)sulfonyl]-1,2,3,4-tetrahydro-quinolin-7-yl]-1-(9-pyridin-4-yl-3,9-diazaspiro[5.5]undecan-3-yl)-ethanone]
[1]
  inhibition at 10 µM: 98%
[2]
  inhibition at 10 µM: 100%

## COc1cc(C)c(S(=O)(=O)N2Cc3ccc(C(=O)N4CCC5(CC4)CCN(c4ccncc4)CC5)cc3C2)c(C)c1 [Compound G-67, [2-[(4-Methoxy-2,6-dimethyl-phenyl)sulfonyl]-2,3-dihydro-1H-isoindol-5-yl]-(9-pyridin-4-yl-3,9-diazaspiro[5.5]undecan-3-yl)-methanone]
[1]
  inhibition at 10 µM: 100%
[2]
  inhibition at 10 µM: 101%

## Cc1cccc(Cl)c1S(=O)(=O)N1Cc2ccc(C(=O)N3CCC4(CC3)CCN(c3ccncc3)CC4)cc2C1 [Compound G-68, [2-[(2-Chloro-6-methyl-phenyl)sulfonyl]-2,3-dihydro-1H-isoindol-5-yl]-(9-pyridin-4-yl-3,9-diazaspiro[5.5]undecan-3-yl)-methanone]
[1]
  inhibition at 10 µM: 90%
[2]
  inhibition at 10 µM: 81%
